Experimental data from the NIST ThermoML archive (doi:10.1016/j.jct.2015.04.024).

Assay: mn = molality of the nth substance listed, in mol/kg
Settings: 75 kPa, Liquid, Buoyancy - hydrostatic balance with magnetic suspension - one sinker

NCC(=O)O [2-aminoacetic acid] + O
Settings	mass density [kg/m3]
275.63 K, m1 = 0.02975	1000.98
275.63 K, m1 = 0.03917	1001.3
275.63 K, m1 = 0.05033	1001.69
275.63 K, m1 = 0.0596	1002
275.63 K, m1 = 0.07025	1002.37
275.63 K, m1 = 0.07948	1002.68
275.63 K, m1 = 0.089	1003.01
275.63 K, m1 = 0.09846	1003.34
276.13 K, m1 = 0.03055	1001.01
276.13 K, m1 = 0.04004	1001.34
276.13 K, m1 = 0.05063	1001.71
276.13 K, m1 = 0.05984	1002.02
276.13 K, m1 = 0.06886	1002.32
276.13 K, m1 = 0.08159	1002.76
276.13 K, m1 = 0.08976	1003.05
276.13 K, m1 = 0.1001	1003.39
276.69 K, m1 = 0.02962	1000.98
276.69 K, m1 = 0.03964	1001.32
276.69 K, m1 = 0.04889	1001.63
276.69 K, m1 = 0.06028	1002.02
276.69 K, m1 = 0.06972	1002.34
276.69 K, m1 = 0.07961	1002.68
276.69 K, m1 = 0.0885	1002.98
276.69 K, m1 = 0.1008	1003.39
277.12 K, m1 = 0.02962	1000.96
277.12 K, m1 = 0.03964	1001.31
277.12 K, m1 = 0.04889	1001.62
277.12 K, m1 = 0.06028	1002.01
277.12 K, m1 = 0.06972	1002.32
277.12 K, m1 = 0.07961	1002.66
277.12 K, m1 = 0.0885	1002.97
277.12 K, m1 = 0.1008	1003.38
277.67 K, m1 = 0.02975	1000.98
277.67 K, m1 = 0.03917	1001.3
277.67 K, m1 = 0.05033	1001.68
277.67 K, m1 = 0.0596	1002
277.67 K, m1 = 0.07025	1002.36
277.67 K, m1 = 0.07948	1002.67
277.67 K, m1 = 0.085	1002.85
277.67 K, m1 = 0.09846	1003.32
278.12 K, m1 = 0.02966	1000.97
278.12 K, m1 = 0.04207	1001.38
278.12 K, m1 = 0.05006	1001.65
278.12 K, m1 = 0.06152	1002.04
278.12 K, m1 = 0.06869	1002.28
278.12 K, m1 = 0.0814	1002.71
278.12 K, m1 = 0.08635	1002.88
278.12 K, m1 = 0.09984	1003.33
278.65 K, m1 = 0.02951	1000.95
278.65 K, m1 = 0.04154	1001.35
278.65 K, m1 = 0.04986	1001.64
278.65 K, m1 = 0.05429	1001.78
278.65 K, m1 = 0.07168	1002.36
278.65 K, m1 = 0.08119	1002.67
278.65 K, m1 = 0.0895	1002.96
278.65 K, m1 = 0.09674	1003.2

CCC(N)C(=O)O (stereo not drawn) [(.+-.)-α-aminobutyric acid] + O
Settings	mass density [kg/m3]
275.63 K, m1 = 0.03017	1000.84
275.63 K, m1 = 0.03851	1001.09
275.63 K, m1 = 0.04794	1001.36
275.63 K, m1 = 0.06041	1001.72
275.63 K, m1 = 0.072	1002.07
275.63 K, m1 = 0.07612	1002.18
275.63 K, m1 = 0.08971	1002.58
275.63 K, m1 = 0.0967	1002.78
276.13 K, m1 = 0.03035	1000.85
276.13 K, m1 = 0.03896	1001.1
276.13 K, m1 = 0.04967	1001.42
276.13 K, m1 = 0.05823	1001.67
276.13 K, m1 = 0.07075	1002.03
276.13 K, m1 = 0.08046	1002.31
276.13 K, m1 = 0.0901	1002.6
276.13 K, m1 = 0.0968	1002.78
276.69 K, m1 = 0.0256	1000.72
276.69 K, m1 = 0.03484	1000.99
276.69 K, m1 = 0.04383	1001.25
276.69 K, m1 = 0.05138	1001.47
276.69 K, m1 = 0.06131	1001.77
276.69 K, m1 = 0.06872	1001.99
276.69 K, m1 = 0.0783	1002.24
276.69 K, m1 = 0.08694	1002.51
277.12 K, m1 = 0.03035	1000.86
277.12 K, m1 = 0.03896	1001.12
277.12 K, m1 = 0.04967	1001.42
277.12 K, m1 = 0.05823	1001.68
277.12 K, m1 = 0.07075	1002.04
277.12 K, m1 = 0.08046	1002.31
277.12 K, m1 = 0.0901	1002.6
277.12 K, m1 = 0.0968	1002.79
277.67 K, m1 = 0.0256	1000.71
277.67 K, m1 = 0.03484	1000.99
277.67 K, m1 = 0.04383	1001.25
277.67 K, m1 = 0.05138	1001.47
277.67 K, m1 = 0.06131	1001.76
277.67 K, m1 = 0.06872	1001.99
277.67 K, m1 = 0.0783	1002.25
277.67 K, m1 = 0.08694	1002.51
278.12 K, m1 = 0.03122	1000.86
278.12 K, m1 = 0.04081	1001.16
278.12 K, m1 = 0.04913	1001.38
278.12 K, m1 = 0.05983	1001.72
278.12 K, m1 = 0.07098	1002.05
278.12 K, m1 = 0.08031	1002.3
278.12 K, m1 = 0.09051	1002.6
278.12 K, m1 = 0.09974	1002.85
278.65 K, m1 = 0.0312	1000.86
278.65 K, m1 = 0.04081	1001.12
278.65 K, m1 = 0.04913	1001.35
278.65 K, m1 = 0.05983	1001.67
278.65 K, m1 = 0.07098	1002
278.65 K, m1 = 0.08031	1002.27
278.65 K, m1 = 0.09051	1002.57
278.65 K, m1 = 0.0997	1002.85

CC(N)C(=O)O (stereo not drawn) [DL-2-aminopropanoic acid] + O
Settings	mass density [kg/m3]
275.63 K, m1 = 0.0294	1000.85
275.63 K, m1 = 0.04005	1001.17
275.63 K, m1 = 0.04974	1001.47
275.63 K, m1 = 0.0592	1001.76
275.63 K, m1 = 0.0695	1002.07
275.63 K, m1 = 0.08475	1002.53
275.63 K, m1 = 0.0911	1002.72
275.63 K, m1 = 0.1019	1003.05
276.13 K, m1 = 0.03044	1000.88
276.13 K, m1 = 0.04034	1001.19
276.13 K, m1 = 0.04918	1001.46
276.13 K, m1 = 0.05989	1001.78
276.13 K, m1 = 0.07063	1002.11
276.13 K, m1 = 0.07952	1002.37
276.13 K, m1 = 0.09022	1002.69
276.13 K, m1 = 0.09952	1002.98
276.69 K, m1 = 0.03006	1000.88
276.69 K, m1 = 0.04009	1001.19
276.69 K, m1 = 0.04963	1001.48
276.69 K, m1 = 0.0606	1001.81
276.69 K, m1 = 0.0711	1002.13
276.69 K, m1 = 0.07938	1002.37
276.69 K, m1 = 0.08509	1002.54
276.69 K, m1 = 0.09839	1002.95
277.12 K, m1 = 0.03044	1000.89
277.12 K, m1 = 0.04034	1001.19
277.12 K, m1 = 0.0492	1001.46
277.12 K, m1 = 0.05989	1001.78
277.12 K, m1 = 0.07063	1002.1
277.12 K, m1 = 0.07952	1002.37
277.12 K, m1 = 0.09022	1002.7
277.12 K, m1 = 0.09952	1002.97
277.67 K, m1 = 0.02944	1000.85
277.67 K, m1 = 0.04005	1001.17
277.67 K, m1 = 0.04974	1001.46
277.67 K, m1 = 0.0592	1001.74
277.67 K, m1 = 0.0695	1002.06
277.67 K, m1 = 0.08475	1002.51
277.67 K, m1 = 0.0911	1002.7
277.67 K, m1 = 0.1019	1003.04
278.12 K, m1 = 0.03078	1000.9
278.12 K, m1 = 0.03875	1001.11
278.12 K, m1 = 0.04963	1001.45
278.12 K, m1 = 0.05968	1001.76
278.12 K, m1 = 0.0709	1002.09
278.12 K, m1 = 0.07928	1002.34
278.12 K, m1 = 0.09099	1002.69
278.12 K, m1 = 0.1006	1002.98
278.65 K, m1 = 0.03078	1000.89
278.65 K, m1 = 0.03875	1001.13
278.65 K, m1 = 0.04963	1001.45
278.65 K, m1 = 0.05968	1001.75
278.65 K, m1 = 0.0709	1002.09
278.65 K, m1 = 0.07928	1002.34
278.65 K, m1 = 0.09099	1002.68
278.65 K, m1 = 0.1006	1002.96
